In patent US20080206253A1, “Method For Preventing or Treating Pain in a Mammal” (priority 2005, published 2008):
Entries after “also recorded” stand apart in the source; their conditions may differ.

Columns and labels:
[1] = tested on: phosphorylated p38 (P-p38); test: Formalin-induced phosphorylation of spinal p38 (Western blot); type: in vivo, rat; details: IT p38α AS 30 μg or p38β AS 20 μg for 5 days; assessed 15 minutes after formalin; in comparison to MS treated rats
Description: Injection of formalin into the hind paw leads to phosphorylation of p38 MAP kinase in spinal cord, by 5 minutes after injection. Svensson et al., J Neurochem 86: 1534-1544, 2003b. A full time course was performed (0, 5, 15, 20, 30, 60 min) for formalin-induced phosphorylation of spinal p38 and found peak p38 phosphorylation at 15 min (FIG. 6A). As shown above, down regulation of spinal p380, leads to attenuation of formalin-induced hyperalgesia, it was hypothesized that down-regulation of spinal p38, would reduce the amount of phosphorylated p38 in the spinal cord after formalin injection.
(A) Representative western blots showing levels of P-p38, total p38 and β-actin in the contralateral (left side) and ipsilateral (right side) lumbar spinal cord at different time points after injection of formalin (2.5%, 50 μl) into the dorsal side of the right hind paw. (B) Rats were naïve (no IT treatment, no formalin paw injection) or treated with p38α AS (30 μg), p38β AS (20 μg) or missense (30 μg) for 5 days. On day six, formalin was injected to the hind paw and the level of phosphorylated p38 (P-p38) assessed 15 minutes after injection. […]
Western blot. […] After washing, the antibody-protein complexes were probed with appropriate secondary antibodies labeled with horseradish peroxidase for 1 hr at room temperature and detected with chemiluminescent reagents (SuperSignal, Pierce, Rockford, Ill.). […]

[2] = tested on: rats, IT SP (spinal NK-1 receptors); test: IT substance P-evoked thermal hyperalgesia (paw withdrawal latency, Hargreaves device); type: in vivo, rat; details: for IT SP-induced thermal hyperalgesia (paw withdrawal latency): IT p38α AS 30 μg or p38β AS 20 μg daily for five days, IT SP 30 nmol, compared with MS group; for Base line thermal thresholds: before IT SP, after five days of IT treatment
Description: Yaksh et al., Nature 286: 155-157, 1980; Yaksh, Trends Pharmacol Sci 20: 329-337, 1999. […] Malmberg and Yaksh, Science 257: 1276-1279, 1992; Svensson et al., J Neurochem 86: 1534-1544, 2003. […] To investigate the contribution of p38α and p38β to SP-evoked hyperalgesia and p38 phosphorylation, spinal delivery of p38α and p38β AS and MS was carried out. Thermal withdrawal latencies was assessed after IT injection of SP and lumbar spinal cords collected immediately to compare the degree of spinal p38 phosphorylation at the hypothesized time of peak phosphorylation. IT injection of SP into the MS group produced an expected reduction of thermal withdrawal latency in comparison with IT saline injection into to vehicle treated animals (FIG. 7C). […] In contrast, IT SP-induced thermal hyperalgesia was attenuated in rats which had received p38β AS (FIG. 7E). […] Stripping and reprobing the western blot membranes confirmed that p38α protein expression was knocked down in p38α AS treated group (FIG. 7D) as well as p38β in the p38β AS group (FIG. 7F).
Nociceptive models. To directly induce spinal sensitization, rats received intrathecal injections of sP (30 nmol) which activates spinal NK-1 receptors and produces thermal hyperalgesia. Hua et al., Neuroscience 89: 525-534, 1999a; Piercey et al., Science 214: 1361-1363, 1981; Yashpal and Henry, Can J Physiol Pharmacol 61: 303-307, 1983. Thermally evoked paw withdrawal responses were assessed using a Hargreaves type testing device. Dirig et al., J Neurosci Methods 76: 183-191, 1997. Briefly, rats were placed on a glass surface maintained at 30° C. The thermal nociceptive stimulus originates from a projection bulb below the glass surface, and the stimulus is delivered separately to one hind paw at a time. The animals were allowed to acclimatize on the glass surface and basal paw withdrawal latencies (PWL) were then assessed for left and right paws at time (T)=−40, =30 and −20 min and expressed as the mean of the six measurements. At T=−10 min the animals received intrathecal vehicle or drug and at T=0, sP was injected. Withdrawal latencies were then assessed at T=15, 30, 45 and 60 min. Paw withdrawal latency for each group was expressed as the mean at each time point.

Substance	phosphorylated p38 in the spinal cord after formalin injection [1]	IT SP-induced thermal hyperalgesia (paw withdrawal latency) [2]	Base line thermal thresholds [2] [s]
p38α AS: 20-nucleotide 2′-MOE phosphorothioate chimeric antisense AGGTGCTCAGGACTCCATTT, beginning at position 1081 in the rat p38α mRNA (all phosphorothioate, sugars by position and methylation of C not given here; 2'-MOE chimeric (gapmer) antisense)	did not prevent spinal p38 phosphorylation	not affected	11.49 ± 0.3
p38β AS: 20-nucleotide 2′-MOE phosphorothioate chimeric antisense GTATGTCCTCCTCGCGTGGA, beginning at position 439 in the rat p38β mRNA (all phosphorothioate, sugars by position and methylation of C not given here; 2'-MOE chimeric (gapmer) antisense)	reduction of phosphorylated p38	attenuated; also recorded: blocked IT SP-evoked thermal hyperalgesia	10.8 ± 0.5
